Test [1] deals with T1, hMC-4R (Homo sapiens, UniProt P32245).
T1 construct: expressed in transfected cells; host or cells: HEK293
As to the kind of experiment: Membrane binding assay (fluorescence polarization, competition with fluorescence labeled NDP-alpha-MSH). The settings on record: HEK293 cell membrane preparations expressing human melanocortin receptors; 5 h at room temperature. For orientation: Fluorescence polarisation rises when a labelled molecule tumbles more slowly, as on binding a larger partner.

The target of test [2] is T1, hMC-4R. The test is described as follows: Functional assay (membrane based cAMP fluorescence polarization assay, agonistic activity). The test is classed as biochemical. Particulars: for Emax / % activation functional assay: cAMP produced compared to stimulation with NDP-alpha-MSH; for Emax: read-out: % activation functional assay; for EC50: membrane preparations from HEK293 cells expressing the human melanocortin receptors, cAMP production. How it is done: Agonistic activity of human melanocortin receptors is determined in a homogeneous membrane based assay.
Membrane preparations from HEK293 cells expressing the human melanocortin receptors are added. After a short preincubation period, an appropriate amount of ATP, GTP and the cAMP antibody is added and the plate is further incubated before the fluorescence labeled cAMP conjugate is dispensed. The plate is incubated for 2 h at 4°C before it is read on a fluorescence polarization microplate reader. The amount of cAMP produced as a response to a test compound is compared to the production of cAMP resulting from stimulation with NDP-alpha-MSH.

Each structure is given as a SMILES string.

T1 sequence (P32245 whole entry): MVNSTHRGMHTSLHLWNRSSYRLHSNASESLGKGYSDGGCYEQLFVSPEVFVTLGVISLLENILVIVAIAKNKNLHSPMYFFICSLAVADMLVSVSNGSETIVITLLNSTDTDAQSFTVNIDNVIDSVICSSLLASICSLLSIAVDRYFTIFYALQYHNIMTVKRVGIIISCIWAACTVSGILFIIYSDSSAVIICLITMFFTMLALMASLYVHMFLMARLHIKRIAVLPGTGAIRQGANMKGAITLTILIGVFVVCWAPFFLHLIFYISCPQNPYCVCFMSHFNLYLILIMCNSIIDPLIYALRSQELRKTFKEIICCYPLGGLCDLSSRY

Take `NC(Cc1ccc(Cl)cc1)C(=O)N1CCC(c2cc(F)ccc2OCCN2CCCC2)CC1` (centres unmarked) [Example 105]: the IC50 (commonly the concentration that gives 50% inhibition) on hMC-4R [1] is 0.26 µM. Also, on hMC-4R [2], the Emax was 90% and the response was half-maximal at 0.57 µM (EC50).
The molecule `NC(Cc1ccc(Cl)cc1)C(=O)N1CCC(c2ccccc2CCCN2CCCC2)CC1` (centres unmarked) [Example 113] had an IC50 on hMC-4R [1] of 0.79 µM. Also, on hMC-4R [2], the Emax came out at 78% and the EC50 – broadly, the concentration at which the effect is half-maximal – is 1.1 µM.
On to `NC(Cc1ccc(Cl)cc1)C(=O)N1CCC(c2ccc(Cl)cc2OCCCN2CCCCC2)CC1` (centres unmarked) [Example 110], for which, on hMC-4R [1], the IC50 was 0.19 µM. At hMC-4R [2], the Emax amounted to 73% and the EC50 was 0.28 µM.
`NC(Cc1ccc(Cl)cc1)C(=O)N1CCC(c2cc(F)c(F)cc2OCCN2CCCC2)CC1` (centres unmarked) [Example 111]: the IC50 at hMC-4R [1] was 0.31 µM. On hMC-4R [2], the Emax was 75% and the EC50 came to 0.17 µM.
In turn, `NC(Cc1ccc(Cl)cc1)C(=O)N1CCC(c2ccc(F)cc2CCCN2CCCC2)CC1` (centres unmarked) [Example 114] returned an IC50 at hMC-4R [1] of 0.29 µM. Also, on hMC-4R [2], the Emax worked out at 89% and the EC50 is 0.64 µM.
Molecule `NC(Cc1ccc(Cl)cc1)C(=O)N1CCC(c2cc(F)c(F)cc2OCCN2CCCCC2)CC1` (centres unmarked) [Example 112] displayed an IC50 on hMC-4R [1] of 0.26 µM. Besides, at hMC-4R [2], the Emax worked out at 73% and the response was half-maximal at 0.11 µM (EC50).
`NC(Cc1ccc(Cl)cc1Cl)C(=O)N1CCC(c2ccccc2OCCN2CCCC2)CC1` (centres unmarked) [Example 1] returned an IC50 on hMC-4R [1] of 0.13 µM. Moreover, the “% activation functional assay” value on hMC-4R [2] was “no activation”.
As to `NC(Cc1ccc(Cl)cc1)C(=O)N1CCC(c2ccccc2OCCN2CCCC2)CC1` (centres unmarked) [Example 101], the IC50 at hMC-4R [1] worked out at 0.47 µM. At hMC-4R [2], the Emax turned out to be 78% and the EC50 turned out to be 1.6 µM.
In the same order, the values of `NC(Cc1ccc(Cl)cc1)C(=O)N1CCC(c2cc(Cl)ccc2OCCN2CCCC2)CC1` (centres unmarked) [Example 106] are 0.15 µM, 87% and 0.23 µM.
On hMC-4R [1], `NC(Cc1ccc(Cl)cc1Cl)C(=O)N1CCC(c2ccc(Cl)cc2OCCN2CCCC2)CC1` (centres unmarked) [Example 3] came in with an IC50 of 0.028 µM. Moreover, the “% activation functional assay” value on hMC-4R [2] was “no activation”.
Consider `NC(Cc1ccc(Cl)cc1Cl)C(=O)N1CCC(c2ccc(F)cc2OCCN2CCCC2)CC1` (centres unmarked) [Example 2], for which the IC50 at hMC-4R [1] was 0.064 µM. Besides, the Emax at hMC-4R [2] is 22%.
On to `NC(Cc1ccc(Cl)cc1Cl)C(=O)N1CCC(c2cc(F)c(F)cc2OCCN2CCCC2)CC1` (centres unmarked) [Example 7], for which the IC50 at hMC-4R [1] amounted to 0.057 µM. Besides, on hMC-4R [2], the Emax worked out at 29%.

(Values after EP1826201A1, “Substituted phenylpiperidine derivatives as melanocortin-4 receptor modulators” (Santhera Pharmaceuticals (Schweiz) AG, priority 2006, dated 2007).)
